Measured values taken from ChEMBL document CHEMBL1201862, “PubChem BioAssay data set” (2004).
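These data come from cells grown in 96-well plates and exposed to compound for 48 hours at five concentrations. GI50 marks 50% less growth.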 Active and inactive are the calls of the source. No stated cut-off is given here; in the data, active = GI50 up to about 1.1 µM and inactive = higher.

Key:
Assay in all cases: growth of human tumour cells (NCI), 48 h
[1] = system: UACC-62
[2] = system: PC-3
[3] = system: SF-539
[4] = system: Malme-3M
[5] = system: CCRF-CEM
[6] = system: TK-10
[7] = system: 786-0
[8] = system: HT-29
[9] = system: A549
[10] = system: ACHN
[11] = system: A498
[12] = system: NCI-H226
[13] = system: UACC-257
[14] = system: OVCAR-3
[15] = system: SK-MEL-5
[16] = system: HCT-15
[17] = system: M14
[18] = system: NCI/ADR-RES
[19] = system: EKVX
[20] = system: KM12

Structure (SMILES): CC[n+]1c(/C=C/c2ccc(N(CCCl)CCCl)cc2)ccc2cc(NC(=O)/C=C/c3ccccc3)ccc21
- GI50 [1]: 0.646 µM (active)
- GI50 [2]: 0.402 µM (active)
- GI50 [3]: 0.308 µM (active)
- GI50 [4]: 0.291 µM (active)
- GI50 [5]: 0.118 µM (active)
- GI50 [6]: 2.95 µM (inactive)
- GI50 [7]: 0.336 µM (active)
- GI50 [8]: 0.344 µM (active)
- GI50 [9]: 0.279 µM (active)
- GI50 [10]: 0.807 µM (active)
- GI50 [11]: 10.3 µM (inactive)
- GI50 [12]: 0.456 µM (active)
- GI50 [13]: 0.787 µM (active)
- GI50 [14]: 1.75 µM (inactive)
- GI50 [15]: 0.174 µM (active)
- GI50 [16]: 14.2 µM
- GI50 [17]: 0.436 µM (active)
- GI50 [18]: 30.9 µM (inactive)
- GI50 [19]: 0.927 µM (active)
- GI50 [20]: 0.423 µM (active)

Structure (SMILES): N=C(N)NC(=N)Nc1ccc(S(=O)(=O)O)cc1
- GI50 [1]: > 100 µM (inactive)
- GI50 [2]: > 100 µM (inactive)
- GI50 [3]: > 100 µM (inactive)
- GI50 [4]: > 100 µM (inactive)
- GI50 [5]: > 100 µM (inactive)
- GI50 [6]: > 100 µM (inactive)
- GI50 [7]: > 100 µM (inactive)
- GI50 [8]: > 100 µM (inactive)
- GI50 [9]: > 100 µM (inactive)
- GI50 [10]: > 100 µM (inactive)
- GI50 [11]: > 100 µM (inactive)
- GI50 [12]: > 100 µM (inactive)
- GI50 [13]: > 100 µM (inactive)
- GI50 [14]: > 100 µM (inactive)
- GI50 [15]: > 100 µM (inactive)
- GI50 [16]: > 100 µM
- GI50 [17]: > 100 µM (inactive)
- GI50 [18]: > 100 µM (inactive)
- GI50 [19]: > 100 µM (inactive)
- GI50 [20]: > 100 µM (inactive)

Structure (SMILES): Cc1ccc(S(=O)(=O)NC(=O)NNc2ccc(F)cc2)cc1
- GI50 [1]: > 100 µM (inactive)
- GI50 [2]: > 100 µM (inactive)
- GI50 [3]: > 100 µM (inactive)
- GI50 [4]: > 100 µM (inactive)
- GI50 [5]: > 100 µM (inactive)
- GI50 [6]: > 100 µM (inactive)
- GI50 [7]: > 100 µM (inactive)
- GI50 [8]: > 100 µM (inactive)
- GI50 [9]: > 100 µM (inactive)
- GI50 [10]: > 100 µM (inactive)
- GI50 [11]: > 100 µM (inactive)
- GI50 [12]: > 100 µM (inactive)
- GI50 [13]: > 100 µM (inactive)
- GI50 [14]: > 100 µM (inactive)
- GI50 [15]: > 100 µM (inactive)
- GI50 [16]: > 100 µM
- GI50 [17]: > 100 µM (inactive)
- GI50 [18]: > 44 µM (inactive)
- GI50 [19]: > 100 µM (inactive)
- GI50 [20]: > 100 µM (inactive)

Structure (SMILES): O=c1c2cc([N+](=O)[O-])ccc2oc2nc3n(c(=O)c12)CCCS3
- GI50 [1]: > 100 µM (inactive)
- GI50 [2]: > 100 µM (inactive)
- GI50 [3]: > 100 µM (inactive)
- GI50 [4]: > 100 µM (inactive)
- GI50 [5]: > 100 µM (inactive)
- GI50 [6]: > 100 µM (inactive)
- GI50 [7]: 66.8 µM (inactive)
- GI50 [9]: > 100 µM (inactive)
- GI50 [10]: > 100 µM (inactive)
- GI50 [11]: > 100 µM (inactive)
- GI50 [12]: > 100 µM (inactive)
- GI50 [13]: > 100 µM (inactive)
- GI50 [14]: > 100 µM (inactive)
- GI50 [15]: > 100 µM (inactive)
- GI50 [16]: > 100 µM
- GI50 [17]: > 100 µM (inactive)
- GI50 [18]: > 100 µM (inactive)
- GI50 [19]: > 100 µM (inactive)
- GI50 [20]: > 100 µM (inactive)

Structure (SMILES): CC(C)c1cccc(C(C)C)c1NC(=O)/C(CC(=O)CC(c1ccccc1)c1c(O)c2ccccc2oc1=O)=N/O (centres undefined)
- GI50 [1]: > 100 µM (inactive)
- GI50 [2]: > 100 µM (inactive)
- GI50 [3]: > 100 µM (inactive)
- GI50 [4]: 95.9 µM (inactive)
- GI50 [5]: > 100 µM (inactive)
- GI50 [6]: > 100 µM (inactive)
- GI50 [7]: > 100 µM (inactive)
- GI50 [8]: > 100 µM (inactive)
- GI50 [9]: > 100 µM (inactive)
- GI50 [10]: > 100 µM (inactive)
- GI50 [11]: > 100 µM (inactive)
- GI50 [12]: > 100 µM (inactive)
- GI50 [13]: > 100 µM (inactive)
- GI50 [14]: > 100 µM (inactive)
- GI50 [15]: > 100 µM (inactive)
- GI50 [16]: > 100 µM
- GI50 [17]: > 100 µM (inactive)
- GI50 [18]: > 100 µM (inactive)
- GI50 [19]: > 100 µM (inactive)
- GI50 [20]: > 100 µM (inactive)

Structure (SMILES): O=C1OS2(OC(=O)c3cccc4cccc2c34)c2ccccc21 (centres undefined)
- GI50 [1]: > 10 µM (inactive)
- GI50 [2]: > 100 µM (inactive)
- GI50 [3]: > 100 µM (inactive)
- GI50 [4]: > 100 µM (inactive)
- GI50 [5]: > 100 µM (inactive)
- GI50 [6]: > 100 µM (inactive)
- GI50 [7]: > 100 µM (inactive)
- GI50 [8]: > 100 µM (inactive)
- GI50 [9]: > 100 µM (inactive)
- GI50 [10]: > 100 µM (inactive)
- GI50 [11]: > 100 µM (inactive)
- GI50 [12]: > 100 µM (inactive)
- GI50 [13]: > 100 µM (inactive)
- GI50 [14]: > 100 µM (inactive)
- GI50 [15]: > 100 µM (inactive)
- GI50 [16]: > 100 µM
- GI50 [17]: > 100 µM (inactive)
- GI50 [18]: > 100 µM (inactive)
- GI50 [19]: > 100 µM (inactive)
- GI50 [20]: > 100 µM (inactive)

Structure (SMILES): CC1(C)OCC2OC(n3cnc4c(N)nc(Cl)nc43)C(OS(C)(=O)=O)C2O1 (centres undefined)
- GI50 [1]: > 100 µM (inactive)
- GI50 [2]: > 100 µM (inactive)
- GI50 [3]: > 100 µM (inactive)
- GI50 [4]: > 100 µM (inactive)
- GI50 [5]: > 100 µM (inactive)
- GI50 [6]: > 100 µM (inactive)
- GI50 [7]: > 100 µM (inactive)
- GI50 [8]: > 100 µM (inactive)
- GI50 [9]: > 100 µM (inactive)
- GI50 [10]: > 100 µM (inactive)
- GI50 [11]: > 100 µM (inactive)
- GI50 [12]: > 100 µM (inactive)
- GI50 [13]: > 100 µM (inactive)
- GI50 [14]: > 100 µM (inactive)
- GI50 [15]: > 100 µM (inactive)
- GI50 [16]: > 100 µM
- GI50 [17]: > 100 µM (inactive)
- GI50 [18]: > 100 µM (inactive)
- GI50 [19]: > 100 µM (inactive)
- GI50 [20]: > 100 µM (inactive)
